Data: the NIST ThermoML archive (doi:10.1016/j.fluid.2015.03.021)

Experiment: excess molar enthalpy (molar enthalpy of mixing); xn = mol fraction of the nth substance listed
Settings: 101 kPa, Liquid, Calvet calorimetry

OCCNCCO [diethanolamine] + O
298.15 K
Settings	excess molar enthalpy [kcal/mol]
x1 = 0.1002	-0.269
x1 = 0.2057	-0.416
x1 = 0.2992	-0.484
x1 = 0.3535	-0.49
x1 = 0.403	-0.487
x1 = 0.5035	-0.449
x1 = 0.6967	-0.303
x1 = 0.8826	-0.12

CN1CCNCC1 [N-methylpiperazine] + O
Settings	excess molar enthalpy [kcal/mol]
303.15 K, x1 = 0.0495	-0.475
303.15 K, x1 = 0.0997	-0.834
303.15 K, x1 = 0.2004	-1.18
303.15 K, x1 = 0.3006	-1.28
303.15 K, x1 = 0.3993	-1.18
303.15 K, x1 = 0.6	-0.841
303.15 K, x1 = 0.7973	-0.435
323.15 K, x1 = 0.3991	-1.12
323.15 K, x1 = 0.4012	-1.11
323.15 K, x1 = 0.4193	-1.09
323.15 K, x1 = 0.4994	-0.983
323.15 K, x1 = 0.5981	-0.823
323.15 K, x1 = 0.7019	-0.617
323.15 K, x1 = 0.8001	-0.42
323.15 K, x1 = 0.8964	-0.226
